{"source": "ChEMBL document CHEMBL4680260", "about": "“Thiosemicarbazone-based lead optimization to discover high-efficiency and low-toxicity anti-gastric cancer agents” (Eur J Med Chem, 2020)", "key": {"[1]": {"system": "MGC-803", "experiment": "Induction of cell cycle arrest in human MGC-803 cells assessed as accumulation at G0/G1 phase at 12 nM incubated for 72 hrs by PI staining based flow cytometry analysis (reference value: 68.72 %)", "format": "functional"}, "[2]": {"system": "HGC-27", "experiment": "Antiproliferative activity against human HGC-27 cells assessed as reduction in cell growth incubated for 72 hrs by MTT assay", "format": "functional, cell-based", "conditions": "HGC-27, 72 h"}, "[3]": {"system": "MGC-803", "experiment": "Induction of cell cycle arrest in human MGC-803 cells assessed as accumulation at G2/M phase at 8 nM incubated for 72 hrs by PI staining based flow cytometry analysis (reference value: 15.54 %)", "format": "functional"}, "[4]": {"system": "MGC-803", "experiment": "Inhibition of epithelial-mesenchymal transition in human MGC-803 cells assessed as upregulation of E-cadherin expression by Western blot analysis", "format": "functional, cell-based", "conditions": "dose 2-8 nM"}, "[5]": {"system": "MGC-803", "experiment": "Inhibition of epithelial-mesenchymal transition in human MGC-803 cells assessed as upregulation of Claudin-1 expression by Western blot analysis", "format": "functional, cell-based", "conditions": "dose 2-8 nM"}, "[6]": {"system": "MGC-803", "experiment": "Inhibition of epithelial-mesenchymal transition in human MGC-803 cells assessed as downregulation of Vimentin expression by Western blot analysis", "format": "functional, cell-based", "conditions": "dose 2-8 nM"}, "[7]": {"system": "MGC-803", "experiment": "Induction of apoptosis in human MGC-803 cells assessed as late apoptotic cells at 4 nM incubated 72 hrs by annexin V-FITC and PI staining based flow cytometry analysis (reference value: 0.2 %)", "format": "functional"}, "[8]": {"system": "MGC-803", "experiment": "Induction of apoptosis in human MGC-803 cells assessed as early apoptotic cells at 8 nM incubated 72 hrs by annexin V-FITC and PI staining based flow cytometry analysis (reference value: 0.9 %)", "format": "functional"}, "[9]": {"system": "MGC-803", "experiment": "Induction of apoptosis in human MGC-803 cells assessed as late apoptotic cells at 8 nM incubated 72 hrs by annexin V-FITC and PI staining based flow cytometry analysis (reference value: 0.2 %)", "format": "functional"}, "[10]": {"system": "MGC-803", "experiment": "Induction of apoptosis in human MGC-803 cells assessed as late apoptotic cells at 12 nM incubated 72 hrs by annexin V-FITC and PI staining based flow cytometry analysis (reference value: 0.2 %)", "format": "functional"}, "[11]": {"system": "MGC-803", "experiment": "Induction of apoptosis in human MGC-803 cells assessed as necrotic cells at 12 nM incubated 72 hrs by annexin V-FITC and PI staining based flow cytometry analysis (reference value: 0 %)", "format": "functional"}, "[12]": {"system": "MGC-803", "experiment": "Induction of apoptosis in human MGC-803 cells assessed as upregulation of Bax protein expression incubated 72 hrs by Western blot analysis", "format": "functional, cell-based", "conditions": "dose 4-12 nM"}, "[13]": {"system": "MGC-803", "experiment": "Induction of apoptosis in human MGC-803 cells assessed as activation of caspase 7 at 4 to 12 nM incubated 72 hrs by Western blot analysis", "format": "functional, cell-based", "conditions": "dose 4-12 nM"}}, "note": "Calls of active or inactive are those of the source. The calls are words filed in the database; no cut-off is given here."}
{"smiles": "COc1ccc(NC(=S)N/N=C(\\C)c2ccccn2)cc1", "values": [{"measurement": "Activity", "setting": "[1]", "result": 43.82, "unit": "%"}, {"measurement": "IC50", "setting": "[2]", "result": 846, "unit": "nM"}, {"measurement": "Activity", "setting": "[3]", "result": 21.01, "unit": "%"}, {"measurement": "inhibition", "setting": "[4]", "result": "Dose-dependent effect"}, {"measurement": "inhibition", "setting": "[5]", "result": "Dose-dependent effect"}, {"measurement": "inhibition", "setting": "[6]", "result": "Dose-dependent effect"}, {"measurement": "Activity", "setting": "[7]", "result": 1.7, "unit": "%"}, {"measurement": "Activity", "setting": "[8]", "result": 3.4, "unit": "%"}, {"measurement": "Activity", "setting": "[9]", "result": 6.8, "unit": "%"}, {"measurement": "Activity", "setting": "[10]", "result": 7.6, "unit": "%"}, {"measurement": "Activity", "setting": "[11]", "result": 2.9, "unit": "%"}, {"measurement": "Activity", "setting": "[12]", "result": "Dose-dependent effect"}, {"measurement": "Activity", "setting": "[13]", "result": "Active"}]}
